# Data as given in patent US20230003721A1, “MITOTHERAPEUTICS FOR THE TREATMENT OF BRAIN DISORDERS” (The University of Florida Research Foundation, Inc., priority 2019, published 2023).
# Where a name gives a salt, the structure may show the parent alone. Read-outs that look alike come from different tables or passages of the source.
# What was measured:
# primary neurons [1] = test: CellTiter-Glo luminescence-based ATP assay; format: cell-based, mouse; details: for ATP: ATP orthogonal screen, 24 h; for EC50 / Emax: Mus musculus, Primary neuron, dose response; for EC50: 15 concentrations from 6 nM to 100 uM; for Emax: maximal percent increase relative to in-plate DMSO controls, read-out: ATP (Effect-size)
# Summary of the method: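 Primary neurons treated from DIV13 for 24 h with compound or DMSO. After part of the medium was removed, CellTiter-Glo reagent was added; plates were shaken 10 min at 200 rpm, kept 2 min in the dark at room temperature, and luminescence read as total ATP.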
# primary neurons [2] = test: TMRM fluorescence assay of inner mitochondrial membrane potential (ΔΨm); details: for Emax / EC50: Mus musculus, Primary neuron; for Emax: read-out: TMRM (Effect-size); for EC50: read-out: TMRM-EC50; for TMRM Primary: primary screen, 12.5 μM; for TMRM Primary / TMRM Rescreen: 24 h
# [3] = tested on: primary forebrain neurons; test: cells; details: 24 h; for EC50: Mus musculus, Neuron; for Dendritic Mt CA / Neurite Area: rescreen, 12.5 μM, vs DMSO wells
# [4] = read-out: Elongation (Dend Mt length) EC50
# [5] = read-out: Health (Ax Mt Circularity) EC50
# [6] = read-out: Mt Content (Dend Mt CA) EC50
# [7] = read-out: Sprouting (Neurite Area) EC50
Structure (SMILES),ATP (primary neurons [1]) [Z-scores],EC50 (primary neurons [1]) [µM],Emax (primary neurons [1]) [%],ATP production in neurons (primary neurons [1]; after 24 hr of treatment),Emax (primary neurons [2]) [%],EC50 (primary neurons [2]) [µM],TMRM Primary (primary neurons [2]) [Z-scores],TMRM Rescreen (primary neurons [2]) [Z-scores],"EC50 [3, 4] [µM]","EC50 [3, 5] [µM]","EC50 [3, 6] [µM]","EC50 [3, 7] [µM]",Dendritic Mt CA [3] [robust Z-scores],Neurite Area [3] [robust Z-scores]
CCCCOc1ccc(C(=O)CCN2CCCCC2)cc1 [DYCLONINE HYDROCHLORIDE],7.04,0.14,20.7,increased,22,0.75,3.64,6.30,1.5,0.2,0.2,> 25,3.89,0.33
O=c1c(-c2ccc(O)cc2)coc2cc(O)cc(O)c12 [GENISTEIN],5.96,3,20.6,,19.5,1.3,3.38,4.21,,,,,2.93,0.34
COC(=O)[C@@H]1[C@H]2C[C@H]3c4[nH]c5ccccc5c4CCN3C[C@@H]2CC[C@@H]1O [YOHIMBINE HYDROCHLORIDE],3.11,0.27,23.6,,18.6,0.62,2.70,5.70,0.2,1.3,0.01,1.7,3.44,2.50
